Test results reported in publication PMC9851200, “Multiparameter phenotypic screening for endogenous TFEB and TFE3 translocation identifies novel chemical series modulating lysosome function” (Autophagy, 2022).

Experiments:
TFEB = test: Cellular fractionation and western blot of nuclear/cytoplasmic TFEB; type: cell-based; conditions: nuclear/cytoplasmic TFEB ratio, western blot
Description: Cells were washed with cold PBS (ThermoFisher Scientific/Gibco, 10,010–015) and lysed in RIPA buffer (0.5% Triton X-100, 10 mM Tris/HCl, pH 8.0, 1 mM EDTA (Sigma Aldrich, E6511), 0.5 mM EGTA (Sigma Aldrich, E3889), 0.1% sodium dodecyl sulfate [SDS], 0.02% sodium deoxycholate (Sigma Aldrich, D6750), and 140 mM NaCl (Sigma Aldrich, S9625) supplemented with protease-inhibitor cocktail (Sigma Aldrich/Roche, 4,693,132,001) and phosphatase inhibitors (Roche/Sigma Aldrich, 4,906,845,001) for 30 min at 4°C. The lysates were centrifuged at 13,000 g for 15 min and the supernatants collected. Protein concentration was quantified using BCA reagent (Thermofisher Scientific, 23,252) and 4× SDS Laemmli buffer was added. The samples were boiled at 95°C for 5 min before SDS-polyacrylamide gel electrophoresis (SDS-PAGE) using Mini-PROTEAN® Precast Gels (Bio-Rad, 4,568,094). Ten micrograms of protein per lane were separated by SDS/PAGE and transferred to a PVDF membrane using the Trans-Blot Turbo Transfer System (Bio-Rad, Hercules, CA, USA). […] Nuclear and cytoplasmic fractions were assessed with a LMNA/lamin A/C antibody (Santa Cruz Biotechnology, sc-7292) or GAPDH antibody (Abcam, ab9484), respectively.
Figure S5. […] (C) The levels of nuclear/cytoplasmic TFEB were quantified and presented as a ratio. […]

[1] = target: kinases (KINOMEscan panel) (Homo sapiens, UniProt Q32MK0); type: binding
[2] = target: kinases (KINOMEscan panel) (Homo sapiens, UniProt Q9H093); type: binding
[3] = target: kinases (KINOMEscan panel) (Homo sapiens, UniProt Q13153); type: binding
[4] = target: kinases (KINOMEscan panel) (Homo sapiens, UniProt Q8NEB9); type: binding
[5] = target: kinases (KINOMEscan panel) (Homo sapiens, UniProt Q9UK32); type: binding
[6] = target: kinases (KINOMEscan panel) (Homo sapiens, UniProt Q9H2G2); type: binding
[7] = target: kinases (KINOMEscan panel) (Homo sapiens, UniProt Q86UX6); type: binding
[8] = target: kinases (KINOMEscan panel) (Homo sapiens, UniProt Q8TD08); type: binding
[9] = target: kinases (KINOMEscan panel) (Homo sapiens, UniProt O00506); type: binding
[10] = target: kinases (KINOMEscan panel) (Homo sapiens, UniProt P04629); type: binding
[11] = target: kinases (KINOMEscan panel) (Homo sapiens, UniProt Q16288); type: binding
[12] = target: kinases (KINOMEscan panel) (Homo sapiens, UniProt Q9P289); type: binding
[13] = target: kinases (KINOMEscan panel) (Homo sapiens, UniProt P42679); type: binding
[14] = target: kinases (KINOMEscan panel) (Homo sapiens, UniProt O95382); type: binding
[15] = target: kinases (KINOMEscan panel) (Homo sapiens, UniProt P27361); type: binding
[16] = target: kinases (KINOMEscan panel) (Homo sapiens, UniProt Q6P2M8); type: binding
[17] = target: kinases (KINOMEscan panel) (Homo sapiens, UniProt Q9NSY1); type: binding
[18] = target: kinases (KINOMEscan panel) (Homo sapiens, UniProt O60285); type: binding
[19] = target: kinases (KINOMEscan panel) (Homo sapiens, UniProt Q9Y6E0); type: binding
[20] = target: kinases (KINOMEscan panel) (Homo sapiens, UniProt Q15208); type: binding
[21] = target: kinases (KINOMEscan panel) (Homo sapiens, UniProt Q9NYL2); type: binding
[22] = target: kinases (KINOMEscan panel) (Homo sapiens, UniProt O14733); type: binding
[23] = target: kinases (KINOMEscan panel) (Homo sapiens, UniProt Q8WU08); type: binding
[24] = target: kinases (KINOMEscan panel) (Homo sapiens, UniProt O43283); type: binding
[25] = target: kinases (KINOMEscan panel) (Homo sapiens, UniProt Q13043); type: binding
kinases (KINOMEscan panel) (Homo sapiens, UniProt Q13043), sequence (Q13043 whole entry): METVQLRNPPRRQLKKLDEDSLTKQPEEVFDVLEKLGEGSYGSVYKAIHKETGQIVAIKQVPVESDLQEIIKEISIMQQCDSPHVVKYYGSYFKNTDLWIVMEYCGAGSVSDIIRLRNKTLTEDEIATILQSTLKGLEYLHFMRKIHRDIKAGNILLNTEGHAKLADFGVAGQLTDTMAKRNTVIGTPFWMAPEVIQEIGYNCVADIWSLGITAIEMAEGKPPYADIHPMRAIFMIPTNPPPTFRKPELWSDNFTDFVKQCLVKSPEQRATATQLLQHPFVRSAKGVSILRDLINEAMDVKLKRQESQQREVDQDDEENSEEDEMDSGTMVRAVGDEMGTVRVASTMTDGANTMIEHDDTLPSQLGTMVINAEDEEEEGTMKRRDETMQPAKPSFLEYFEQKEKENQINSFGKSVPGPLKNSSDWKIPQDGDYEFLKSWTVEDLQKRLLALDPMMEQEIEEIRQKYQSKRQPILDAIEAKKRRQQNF

kinases (KINOMEscan panel) (Homo sapiens, UniProt Q9UK32), sequence (Q9UK32 whole entry): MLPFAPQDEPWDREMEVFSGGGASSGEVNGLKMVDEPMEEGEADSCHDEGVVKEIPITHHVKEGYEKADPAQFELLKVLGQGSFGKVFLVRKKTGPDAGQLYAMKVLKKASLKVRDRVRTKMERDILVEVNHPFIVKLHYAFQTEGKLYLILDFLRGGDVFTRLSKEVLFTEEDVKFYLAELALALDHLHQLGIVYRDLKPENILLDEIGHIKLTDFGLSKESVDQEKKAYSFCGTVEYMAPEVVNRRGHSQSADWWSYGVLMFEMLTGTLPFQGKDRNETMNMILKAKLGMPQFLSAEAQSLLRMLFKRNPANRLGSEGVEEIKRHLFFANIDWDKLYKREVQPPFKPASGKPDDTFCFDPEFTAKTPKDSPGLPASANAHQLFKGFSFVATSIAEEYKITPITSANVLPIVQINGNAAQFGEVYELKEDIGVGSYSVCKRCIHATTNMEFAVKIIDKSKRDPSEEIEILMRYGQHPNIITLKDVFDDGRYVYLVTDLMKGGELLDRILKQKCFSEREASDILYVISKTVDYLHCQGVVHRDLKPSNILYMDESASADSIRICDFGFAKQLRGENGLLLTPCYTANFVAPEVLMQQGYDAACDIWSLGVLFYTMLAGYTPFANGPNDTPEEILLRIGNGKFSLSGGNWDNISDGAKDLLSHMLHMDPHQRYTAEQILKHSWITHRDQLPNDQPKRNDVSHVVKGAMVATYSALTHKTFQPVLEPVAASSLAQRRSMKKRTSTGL
kinases (KINOMEscan panel) (Homo sapiens, UniProt Q9H093), sequence (Q9H093 whole entry): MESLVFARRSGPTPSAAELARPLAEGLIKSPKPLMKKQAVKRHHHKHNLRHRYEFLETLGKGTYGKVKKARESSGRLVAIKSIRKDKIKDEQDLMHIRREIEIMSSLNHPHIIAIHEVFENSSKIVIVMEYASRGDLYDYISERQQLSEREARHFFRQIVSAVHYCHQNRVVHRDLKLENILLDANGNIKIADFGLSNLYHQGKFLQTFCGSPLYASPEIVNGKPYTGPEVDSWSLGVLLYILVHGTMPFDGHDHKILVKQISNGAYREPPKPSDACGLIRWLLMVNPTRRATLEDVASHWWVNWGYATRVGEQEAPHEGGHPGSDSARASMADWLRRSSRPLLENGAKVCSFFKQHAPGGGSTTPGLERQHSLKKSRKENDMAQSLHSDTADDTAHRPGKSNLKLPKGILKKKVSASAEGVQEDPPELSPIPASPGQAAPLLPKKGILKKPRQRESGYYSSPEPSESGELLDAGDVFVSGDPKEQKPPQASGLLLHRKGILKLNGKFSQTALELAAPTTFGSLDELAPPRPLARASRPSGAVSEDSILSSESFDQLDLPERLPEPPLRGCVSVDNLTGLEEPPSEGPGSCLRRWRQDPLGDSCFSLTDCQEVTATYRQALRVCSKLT
kinases (KINOMEscan panel) (Homo sapiens, UniProt O43283), sequence (O43283 whole entry): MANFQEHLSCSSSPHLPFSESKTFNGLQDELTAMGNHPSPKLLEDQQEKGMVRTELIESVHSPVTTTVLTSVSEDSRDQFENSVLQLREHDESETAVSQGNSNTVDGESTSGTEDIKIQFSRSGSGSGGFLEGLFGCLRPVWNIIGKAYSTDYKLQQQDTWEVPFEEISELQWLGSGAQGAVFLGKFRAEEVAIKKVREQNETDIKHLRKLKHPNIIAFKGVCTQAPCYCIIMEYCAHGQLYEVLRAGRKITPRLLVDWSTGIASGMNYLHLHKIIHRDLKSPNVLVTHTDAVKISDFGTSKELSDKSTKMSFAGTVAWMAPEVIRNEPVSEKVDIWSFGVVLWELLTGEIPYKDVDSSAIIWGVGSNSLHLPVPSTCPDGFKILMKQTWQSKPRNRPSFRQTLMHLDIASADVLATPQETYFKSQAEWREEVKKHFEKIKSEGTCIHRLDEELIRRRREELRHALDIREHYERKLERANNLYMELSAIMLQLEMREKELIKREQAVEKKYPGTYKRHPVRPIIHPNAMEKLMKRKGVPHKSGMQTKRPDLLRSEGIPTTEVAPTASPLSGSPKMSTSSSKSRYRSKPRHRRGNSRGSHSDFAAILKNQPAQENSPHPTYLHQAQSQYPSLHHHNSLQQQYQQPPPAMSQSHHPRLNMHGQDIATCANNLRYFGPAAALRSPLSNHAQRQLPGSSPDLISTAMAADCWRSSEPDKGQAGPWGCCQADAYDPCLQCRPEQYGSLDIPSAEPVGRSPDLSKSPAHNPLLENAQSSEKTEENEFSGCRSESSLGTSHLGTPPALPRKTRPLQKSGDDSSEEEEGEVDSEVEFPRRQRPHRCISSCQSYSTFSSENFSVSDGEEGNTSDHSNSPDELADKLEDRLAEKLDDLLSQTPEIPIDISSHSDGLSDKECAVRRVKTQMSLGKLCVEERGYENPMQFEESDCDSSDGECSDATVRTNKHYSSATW
kinases (KINOMEscan panel) (Homo sapiens, UniProt P04629), sequence (P04629 33-796): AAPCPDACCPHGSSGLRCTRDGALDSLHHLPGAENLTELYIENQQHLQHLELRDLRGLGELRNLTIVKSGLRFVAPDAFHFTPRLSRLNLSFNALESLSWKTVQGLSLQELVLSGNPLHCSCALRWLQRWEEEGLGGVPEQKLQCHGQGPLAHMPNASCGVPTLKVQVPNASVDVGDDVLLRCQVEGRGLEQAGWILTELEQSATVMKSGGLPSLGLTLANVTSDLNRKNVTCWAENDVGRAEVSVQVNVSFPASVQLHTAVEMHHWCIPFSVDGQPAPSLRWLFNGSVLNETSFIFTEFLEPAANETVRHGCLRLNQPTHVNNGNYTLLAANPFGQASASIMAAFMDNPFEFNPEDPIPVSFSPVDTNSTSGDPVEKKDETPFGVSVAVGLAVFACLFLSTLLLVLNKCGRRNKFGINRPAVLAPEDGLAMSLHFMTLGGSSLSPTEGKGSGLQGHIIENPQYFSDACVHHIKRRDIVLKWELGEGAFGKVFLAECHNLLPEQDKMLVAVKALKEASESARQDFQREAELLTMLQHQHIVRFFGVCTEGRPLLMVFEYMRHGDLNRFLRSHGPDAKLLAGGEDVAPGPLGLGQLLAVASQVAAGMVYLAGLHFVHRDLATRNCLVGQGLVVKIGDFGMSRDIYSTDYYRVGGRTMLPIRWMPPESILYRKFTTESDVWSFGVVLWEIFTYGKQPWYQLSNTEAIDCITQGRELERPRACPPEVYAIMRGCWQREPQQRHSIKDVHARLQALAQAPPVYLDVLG
kinases (KINOMEscan panel) (Homo sapiens, UniProt P42679), sequence (P42679 whole entry): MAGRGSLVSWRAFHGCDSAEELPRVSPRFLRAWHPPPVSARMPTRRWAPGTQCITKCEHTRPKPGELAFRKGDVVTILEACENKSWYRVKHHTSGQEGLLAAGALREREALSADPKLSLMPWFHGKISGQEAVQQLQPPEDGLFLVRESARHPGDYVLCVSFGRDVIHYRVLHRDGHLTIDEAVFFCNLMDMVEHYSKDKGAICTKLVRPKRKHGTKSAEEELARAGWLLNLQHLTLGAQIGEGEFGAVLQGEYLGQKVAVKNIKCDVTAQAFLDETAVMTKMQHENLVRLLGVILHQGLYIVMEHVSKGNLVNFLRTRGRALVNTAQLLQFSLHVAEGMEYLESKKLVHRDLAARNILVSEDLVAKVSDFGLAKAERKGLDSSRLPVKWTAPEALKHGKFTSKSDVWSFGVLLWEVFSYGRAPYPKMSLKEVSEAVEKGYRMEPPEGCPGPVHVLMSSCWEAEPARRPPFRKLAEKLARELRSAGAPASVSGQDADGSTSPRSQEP
kinases (KINOMEscan panel) (Homo sapiens, UniProt P27361), sequence (P27361 whole entry): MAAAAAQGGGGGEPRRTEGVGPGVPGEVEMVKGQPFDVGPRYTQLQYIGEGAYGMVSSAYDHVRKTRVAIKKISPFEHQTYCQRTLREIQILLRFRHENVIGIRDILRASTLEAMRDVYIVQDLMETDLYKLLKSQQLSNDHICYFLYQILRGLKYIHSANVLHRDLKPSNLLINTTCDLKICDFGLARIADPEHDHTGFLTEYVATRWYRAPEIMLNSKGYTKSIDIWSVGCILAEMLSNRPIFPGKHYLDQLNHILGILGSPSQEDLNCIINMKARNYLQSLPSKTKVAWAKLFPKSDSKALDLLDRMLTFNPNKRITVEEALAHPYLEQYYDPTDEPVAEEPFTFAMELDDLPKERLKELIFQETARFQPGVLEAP
kinases (KINOMEscan panel) (Homo sapiens, UniProt Q9Y6E0), sequence (Q9Y6E0 whole entry): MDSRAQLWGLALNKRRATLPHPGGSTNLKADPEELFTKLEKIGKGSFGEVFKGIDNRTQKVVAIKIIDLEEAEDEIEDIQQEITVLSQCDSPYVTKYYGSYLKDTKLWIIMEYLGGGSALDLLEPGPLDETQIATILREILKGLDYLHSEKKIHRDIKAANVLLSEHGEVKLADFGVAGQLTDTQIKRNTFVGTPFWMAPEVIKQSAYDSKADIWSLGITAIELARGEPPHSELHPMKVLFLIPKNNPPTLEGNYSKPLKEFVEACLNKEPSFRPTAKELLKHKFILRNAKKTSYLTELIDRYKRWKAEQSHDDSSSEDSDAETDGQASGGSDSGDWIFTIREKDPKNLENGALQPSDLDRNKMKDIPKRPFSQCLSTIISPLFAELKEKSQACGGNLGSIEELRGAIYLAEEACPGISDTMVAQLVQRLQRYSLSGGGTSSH

For `Cc1cccc(-c2nc(Nc3ccc4ncsc4c3)c3ccccc3n2)n1` [NK140], the “Translocation of TFEB to the nucleus, cellular fractionation (in words)” value (TFEB) was “increased translocation of TFEB to the nucleus”.

In the case of `Cc1cccc(-c2nc(N(C)c3ccc4ncsc4c3)c3ccccc3n2)n1` [NK-161], the “KINOMEscan MYLK/MLCK” value [1] was 8, the “KINOMEscan NUAK2/SNARK” value [2] was 15 and the “KINOMEscan PKN1/PAK1” value [3] was 0. For the same compound, the “KINOMEscan PIK3C3/VPS34” value [4] was 0, the “KINOMEscan RPS6KA6/RSK4(Kin.Dom.1-N-terminal)” value [5] was 8 and the “KINOMEscan RPS6KA6/RSK4(Kin.Dom.2-C-terminal)” value [5] was 4. For the same compound, the “KINOMEscan FYN/SLK” value [6] was 4, the “KINOMEscan STK32C/YANK3” value [7] was 18 and the “KINOMEscan MAPK15/ERK8” value [8] was 0. The “KINOMEscan STK25/YSK1” value [9] was 2, the “KINOMEscan NTRK1/TRKA” value [10] was 22 and the “KINOMEscan NTRK3/TRKC” value [11] was 29. The “KINOMEscan STK26/MST4” value [12] was 5, the “KINOMEscan MATK/CTK” value [13] was 8 and the “KINOMEscan MAP3K6/ASK2” value [14] was 0. The “KINOMEscan MAPK3/ERK1” value [15] was 14, the “KINOMEscan PNCK/CAMK1B” value [16] was 0 and the “KINOMEscan BMP2K/BIKE” value [17] was 12. The “KINOMEscan NUAK1/ARK5” value [18] was 0, the “KINOMEscan STK24/MST3” value [19] was 0 and the “KINOMEscan NDR1/STK38” value [20] was 42. For the same compound, the “KINOMEscan MAP3K20/ZAK” value [21] was 0, the “KINOMEscan MAP2K7/MKK7” value [22] was 0 and the “KINOMEscan STK32A/YANK1” value [23] was 0. The “KINOMEscan MAP3K13/LZK” value [24] was 22 and the “KINOMEscan STK4/MST1” value [25] was 17.
